In publication PMC9151520 (Archives of Toxicology, 2022):
Several values for one entry are separate records, joined by “and”; a condition that tells them apart may be missing. Identical values can stand only once. Like-named read-outs stand apart in the source and are kept apart here.

Assays:
[1] = test system: p53 signaling (p53RE-bla HCT-116 cells)
[2] = test system: p53 signaling (p53RE-bla HCT-116 cells); experiment: cells; format: cell-based
[3] = test system: p53 signaling (p53RE-bla HCT-116 cells); remark: listed apart in the source
[4] = Homo sapiens, HCT-116, read-out: p53 activation EC50, cherry pick confirmation
[5] = Homo sapiens, HCT-116, read-out: p53 activation EC50, primary screening
[6] = Homo sapiens, HCT-116, read-out: p53 activation efficacy, cherry pick confirmation
[7] = Homo sapiens, HCT-116, read-out: p53 activation efficacy, primary screening
[8] = read-out: p53 activation EC50, cherry pick confirmation
[9] = read-out: p53 activation EC50, primary screening

SMILES	Viability EC50, cherry pick confirmation (p53RE-bla HCT-116 cells)	Viability EC50, primary screening (p53RE-bla HCT-116 cells)	Viability efficacy, cherry pick confirmation (p53RE-bla HCT-116 cells)	Viability efficacy, primary screening (p53RE-bla HCT-116 cells)	p53 activation EC50, cherry pick confirmation [1]	p53 activation EC50, primary screening [1]	p53 activation efficacy, cherry pick confirmation [1]	p53 activation efficacy, primary screening [1]	p53 activation EC50, cherry pick confirmation [3]	p53 activation EC50, primary screening [3]	p53 activation efficacy, cherry pick confirmation [3]	p53 activation efficacy, primary screening [3]	p53 activation efficacy, cherry pick confirmation [2]	p53 activation efficacy, primary screening [2]	EC50 [2, 8]	EC50 [2, 9]	other results
O=C(O)c1c(O)c(-c2ccccc2)nc2ccccc12 [Oxycinchophen]	inactive	inactive	inactive	inactive	inactive	inactive	inactive	inactive	inactive	inactive	inactive	inactive	–	–	–	–	EC50 [2, 4]: 23.1 µM; EC50 [2, 5]: 16.6 µM; Emax [2, 6]: 87.1%; Emax [2, 7]: 60.5%
CCOP(=O)(OCC)Oc1ccc([N+](=O)[O-])cc1 [Paraoxon]	inactive	inactive	inactive	inactive	inactive	–	inactive	–	inactive	–	inactive	–	inactive	inactive	–	–	p53 activation EC50, cherry pick confirmation [2]: inactive; p53 activation EC50, primary screening [2]: inactive
CN1C(=O)N(c2ccccc2Br)Cc2cnc(Nc3ccc4c(c3)OCC(CO)O4)nc21 (stereo not shown) [PharmaGSID_48519]	inactive	inactive	inactive	inactive	inactive	inactive	inactive	inactive	inactive	inactive	inactive	inactive	31.694	31.571	13.6 µM	9.59 µM	–
CCN(CC)C(=O)C(Cl)=C(C)OP(=O)(OC)OC [Phosphamidon]	–	–	–	–	–	–	–	–	–	–	–	–	–	–	–	–	Viability EC50, HLM (p53RE-bla HCT-116 cells): inactive; Viability EC50, No MS (p53RE-bla HCT-116 cells): inactive; Viability EC50, RLM (p53RE-bla HCT-116 cells): inactive; Viability Efficacy, No MS (p53RE-bla HCT-116 cells): inactive; p53 activation EC50, HLM [1]: inactive; EC50 ([1]; read-out: p53 activation EC50, HLM): 5.82 µM; p53 activation EC50, No MS [2]: inactive; p53 activation Efficacy, No MS [2]: inactive; EC50 [3]: 3.22 µM; EC50 ([3]; read-out: p53 activation EC50, RLM): 2.35 µM and 3.43 µM
CO/C=C(/C(=O)OC)c1ccccc1COc1cccc(C(F)(F)F)n1 [Picoxystrobin]	inactive	inactive	inactive	inactive	inactive	inactive	inactive	inactive	inactive	inactive	inactive	inactive	51.0407	42.314	12.5 µM	4.78 µM	–
COc1cccc2c1C(=O)c1c(O)c3c(c(O)c1C2=O)C[C@@](O)(C(=O)CO)C[C@@H]3O[C@H]1C[C@H](N)[C@H](O[C@@H]2CCCCO2)[C@H](C)O1 [Pirarubicin]	inactive	inactive	–	inactive	inactive	inactive	inactive	inactive	inactive	inactive	inactive	inactive	–	–	–	–	EC50 [2, 4]: 7.61 µM; EC50 [2, 5]: 2.19 µM; Emax [2, 6]: 287%; Emax [2, 7]: 142%
Nc1ccc2cc3ccc(N)cc3nc2c1.Nc1ccc2cc3ccc(N)cc3nc2c1.O=S(=O)(O)O [Proflavin hemisulfate]	inactive	inactive	–	inactive	inactive	inactive	inactive	inactive	inactive	inactive	inactive	inactive	364.531	180.344	5.5 µM	4.88 µM	EC50 (p53RE-bla HCT-116 cells; read-out: Viability EC50, cherry pick confirmation): 17.8 µM
Cl.Nc1ccc2cc3ccc(N)cc3nc2c1 [Proflavin hydrochloride]	inactive	inactive	inactive	inactive	inactive	inactive	inactive	inactive	inactive	inactive	inactive	inactive	356.887	211.641	3.65 µM	2.9 µM	–
CNC(=O)Oc1ccccc1OC(C)C [Propoxur]	–	–	–	–	–	–	–	–	–	–	–	–	–	–	–	–	Viability EC50 (p53RE-bla HCT-116 cells): inactive; Viability efficacy (p53RE-bla HCT-116 cells): inactive; p53 activation EC50 [1]: inactive; p53 activation EC50 [2]: inactive; p53 activation efficacy [2]: inactive; p53 activation EC50 [3]: inactive
O=c1c(O)c(-c2ccc(O)c(O)c2)oc2cc(O)cc(O)c12 [Quercetin]	–	–	–	–	–	–	–	–	–	–	–	–	–	–	–	–	EC50, viability, cherry pick confirmation (p53RE-bla HCT-116 cells): inactive; EC50, viability, primary screening (p53RE-bla HCT-116 cells): inactive; Efficacy, viability, cherry pick confirmation (p53RE-bla HCT-116 cells): inactive; Efficacy, viability, primary screening (p53RE-bla HCT-116 cells): inactive; EC50, p53 activation, cherry pick confirmation [1]: inactive; EC50, p53 activation, primary screening [1]: inactive; Efficacy, p53 activation, cherry pick confirmation [1]: inactive; Efficacy, p53 activation, primary screening [1]: inactive; EC50, p53 activation, cherry pick confirmation [2]: inactive; Efficacy, p53 activation, cherry pick confirmation [2]: inactive; EC50 ([2]; Homo sapiens, HCT-116, read-out: EC50, p53 activation, primary screening): 45.8 µM; Emax ([2]; Homo sapiens, HCT-116, read-out: Efficacy, p53 activation, primary screening): 31.7%; EC50, p53 activation, cherry pick confirmation [3]: inactive; EC50, p53 activation, primary screening [3]: inactive; Efficacy, p53 activation, cherry pick confirmation [3]: inactive; Efficacy, p53 activation, primary screening [3]: inactive
